Test results reported in patent US7148231B2, “[6,7-Bis(2-methoxy-ethoxy)-quinazolin-4-yl]-(3-ethynyl-phenyl)amine hydrochloride polymorph” (Hoffmann-La Roche Inc., priority 2003, dated 2006).
Where two headings read alike, the source gives them in different places.

Tests used:
[1] = polymorphs described in WO 01/34574; cited from earlier work
[2] = polymorphs described in WO 01/34574; cited from earlier work; remark: listed apart in the source
[3] = Solubility after 20 min equilibration at 20° C.; format: physicochemical; details: hydrochloride; for solubility in aqueous buffer (pH 1): aqueous buffer solution pH 1, 20 min equilibration at 20° C.; for solubility in water: 20 min equilibration at 20° C.
Procedure: The solubility of polymorphs A, B, and E measured after 20 min equilibration at 20° C. in either water or aqueous buffer solution (pH 1) are compiled the following table.: […]

[4] = polymorphs described in WO 01/34574; cited from earlier work; remark: listed apart in the source
[5] = Thermodynamic stability (melting point, heat of solution, equilibration experiments in suspension); format: physicochemical; details: comparison of polymorphs E, A and B; hydrochloride
Procedure: The thermodynamic stability of the individual crystalline polymorphs E, A and B of [6,7-Bis(2-methoxy-ethoxy)-quinazolin-4-yl]-(3-ethynyl-phenyl)amine hydrochloride were measured according to methods known in the art, e.g., from Byrn (Byrn, S. R., Pfeiffer, R. R., Stowell, J. G., “Solid-State Chemistry of Drugs”, SSCI Inc., West Lafayette, Ind., 1999).

Dissolution rate = format: physicochemical; details: compared with polymorph B

SMILES	solubility [1]	dissolution rate [2]	solubility in aqueous buffer (pH 1) [3] [%]	solubility in water [3] [%]	thermodynamic stability [4]	thermodynamic stability [5]	dissolution rate (Dissolution rate)
C#Cc1cccc(Nc2ncnc3cc(OCCOC)c(OCCOC)cc23)c1.Cl [polymorph A, [6,7-Bis(2-methoxy-ethoxy)-quinazolin-4-yl]-(3-ethynyl-phenyl)amine hydrochloride]	better solubility and dissolution rate than polymorph B	better solubility and dissolution rate than polymorph B	0.017	0.194			
C#Cc1cccc(Nc2ncnc3cc(OCCOC)c(OCCOC)cc23)c1.Cl [polymorph B, [6,7-Bis(2-methoxy-ethoxy)-quinazolin-4-yl]-(3-ethynyl-phenyl)amine hydrochloride]			0.003	0.098	thermodynamically more stable than polymorph A	more stable than polymorphs E and A	
C#Cc1cccc(Nc2ncnc3cc(OCCOC)c(OCCOC)cc23)c1.Cl [polymorph E, [6,7-Bis(2-methoxy-ethoxy)-quinazolin-4-yl]-(3-ethynyl-phenyl)amine hydrochloride]			0.011	0.191		thermodynamically more stable than polymorph A	better solubility and dissolution rate than the known polymorph B
